{"source": "paper PMC4450806", "about": "“The cytochrome bd-type quinol oxidase is important for survival of Mycobacterium smegmatis under peroxide and antibiotic-induced stress” (Scientific Reports, 2015)", "molecular_target": "T1, cytochrome bd-type quinol oxidase (cytochrome bd) (Mycolicibacterium smegmatis, UniProt A0QXA8)", "T1 construct": "gene MSMEG_3233; native enzyme in inverted membrane vesicles of the ΔqcrCAB :: hyg strain (cytochrome bd as the only respiratory branch); with CydB (cytochrome bd subunit)", "test": "NADH-driven oxygen consumption of inverted membrane vesicles (Clark-type electrode), wild-type versus bc1-knockout strain", "type": "biochemical", "note": "pIC50: −log10 of the molar value.", "data": [{"smiles": "CC(C)=CCC/C(C)=C/CC/C(C)=C/Cc1c(C)[nH]c2ccccc2c1=O", "note": "[aurachin D]", "values": [{"measurement": "pIC50", "result": "~6.40"}]}]}
